Like-named read-outs stand apart in the source and are kept apart here.
Columns and labels:
[1] = tested on: immature embryos of genotype (H99×Pa 91)A188
Method: Immature embryos of genotype (H99×Pa 91)A188 were isolated as described. […] The Agrobacterium strain was pre-induced as described and three mls of pre-induced Agrobacterium suspension (A660 OD 0.5) supplemented with 20 ? M AgNO3 was added to a 6-well tissue culture plate as described above. Inoculation was performed for 15 minutes. The Agrobacterium suspension was removed and embryos were placed on semi-solid co-culture medium containing 20 ? M AgNO3 (final concentration). All the tissues were incubated for three days in the dark. […] Control embryos were cultured in the absence of AgNO3 in all steps of the transformation process. Transformation efficiency was calculated based on the number of embryos producing paromomycin resistant calli.

[2] = tested on: corn immature embryos, genotype LH198 X Hi-II; conditions: 20 μM silver nitrate
Description: Corn genotype LH198 X Hi-II was used. Corn immature embryos were isolated as described previously. Approximately 30 immature embryos were inoculated for each treatment with Agrobacterium strain ABI harboring plasmid pMON18365 for five minutes and placed on co-culture media for two to three days. There were 4 replicates per treatment. The four treatments included:
Treatment 1: absence of growth inhibiting agent (in both inoculation and co-culture media)
Treatment 2: absence of agent in inoculation media; presence of agent (20 μM silver nitrate) in co-culture media.
Treatment 3: presence of agent (20 μM silver nitrate) in inoculation media; absent in co-culture media
Treatment 4: presence of agent (20 μM silver nitrate) in both inoculation and co-culture media
Within each treatment, five immature embryos were used for transient analysis. This was repeated across all reps within each treatment. The number of GUS spots was determined on both the scutellar surface (scutellar side up) as shown in Table 23 and the number of GUS spots was determined on the axis side of the embryos as shown in Table 24.

wheat immature embryos = conditions: OD660 4.0 plus 20 mM AgNO3, co-culture three days
Method: (§1) The following transformation protocols included the following parameters: use of immature embryos that were pre-cultured for less than 24 h; a bacterial inoculation density >2.0 at OD660, a co-culture duration of from one to three days, the use of a higher concentration of auxin or different type of auxin/combination of growth regulators than that required during normal tissue culture, a delay period 3-7d following co-culture (with out selection pressure), no sub-culture of the original explant, a step-wise increase or decrease, depending on the crop and selection scheme and a transformation duration between 9-12 weeks.

corn immature embryos = tested on: corn immature embryos
Method: as §1

rice immature embryos = conditions: OD660 2.0 plus 20 mM AgNO3, co-culture one day
Method: as §1

[3] = tested on: Agrobacterium (strain ABI); assay type: cell-based; design: key: “No Growth” indicates there was not an increase in cell density indicating bacteriocidal or bacteriostatic property of the chemical; “Slow Growth” indicates that a slight increase in cell density was noticed and a higher level may be lethal; “Growth” indicates no effect on bacterial growth at the concentration used relative to growth in control medium; conditions: control, AgNO3 20 μM; twenty-four hours
Method: Each of the chemicals listed in Table 26 was resuspended in MS-BMS media and added (final concentration 50 μM) to a 50 ml overnight culture of Agrobacterium (strain ABI). Twenty-four hours after inoculation the effect of the chemicals on the growth of Agrobacterium was recorded. A known bacteriocidal compound, Carbenicillin at a final concentration of 50 mg/L and AgNO3 (20 μM) were used as controls.

[4] = tested on: T-DNA transfer (tumor induction) to Kalanchoe cells
Method: Transformation of BMS suspension cells was performed following the protocol described in Table 8. For transforming kalanchoe leaves, a suspension of cells from Agrobacterium strain A281 was applied after performing mechanical wounding as described in White and Nester. The Agrobacterium strain, A136 harboring a binary vector pMON25457 (FIG. 3) was used as a negative control.
(§2) During pre-induction, AgNO3 was added at two different levels (20 ? M and 40 ? M final concentration) to the pre-induction medium. The final optical density prior to the induction was adjusted to A660 (OD 0.2). Agrobacterium cells were pre-induced for 15 hours. Measurement of the optical density (measure of growth) was taken at the end of pre-induction, just prior to transformation. Agrobacterium cells pre-induced in the absence of AgNO3 were used as a control.

Agrobacterium cells = conditions: for Results (growth of Agrobacterium cells): 15 hours; for OD A660 after 15 hours growth: starting OD 0.2
Method: Agrobacterium cultures used for transformation are pre-induced (except as otherwise indicated) by acetosyringone (200 μM) and glucose (2%) in AB based induction medium. The procedure followed was as follows:
Agrobacterium cells were centrifuged at 4° C. for 10 min at 3250 g and the pellet was resuspended in the pre-induction medium to a final optical density of 0.2 at A660 and incubated at 28° C. for 12-15 h.
as §2

[5] = tested on: Agrobacterium tumefaciens strain EHA 101
Method: Three mls of pre-induced Agrobacterium suspension (A660 OD 4.0) was added to a 6-well tissue culture plate as described. After adding the explants to the Agrobacterium suspension cells, the inoculation was performed for 15 minutes. The Agrobacterium suspension was removed and the embryos were placed on semi-solid medium with or without AgNO3 (20 ? M final concentration). All the tissues were incubated for three days in the dark. The amount of Agrobacterium present was estimated at the beginning by randomly sampling immature embryos immediately after inoculation and again at the end of the co-culture period to determine the number of attached Agrobacterium cells per immature embryo explant.

[6] = 20 μM AgNO3 in pre-induction medium
[7] = 40 μM AgNO3 in pre-induction medium

## O=[N+]([O-])[O-].[Ag+] [AgNO3, silver nitrate]
[1]; 5d 20 μM AgNO3: present during inoculation and 5 day delay, not during 3 day co-culture
  % Transformation: 7.8 (4/51) %
[1]; 8d 20 μM AgNO3: present during inoculation, 3 day co-culture and 5 day delay
  % Transformation: 9.0 (5/55) %
[2]; Treatment 2 (inoculation)
  Average # GUS spots/embryo (axis): 40.8
  Average # GUS spots/embryo (scutellar surface): 82.5
[2]; Treatment 3 (co-culture)
  Average # GUS spots/embryo (axis): 3.8
  Average # GUS spots/embryo (scutellar surface): 81.8
[2]; Treatment 4 (both)
  Average # GUS spots/embryo (axis): 8.4
  Average # GUS spots/embryo (scutellar surface): 58.9
Wheat immature embryos
  Transformation (%): 4%
Corn immature embryos; OD660 2.0 plus 20 μM AgNO3, co-culture three days
  Transformation (%): 18%
Corn immature embryos; OD660 4.0 plus 20 μM AgNO3, co-culture three days
  Transformation (%): 8%
Rice immature embryos
  Transformation (%): 23%
[3]
  Effect (on growth of Agrobacterium): No Growth
[4]; A281 pre-induced with 20 μM AgNO3
  Results (T-DNA transfer): no transfer
[4]; A281 pre-induced with 40 μM AgNO3
  Results (T-DNA transfer): no transfer
Agrobacterium cells; [6]
  Results (growth of Agrobacterium cells): no growth
  OD A660 after 15 hours growth: 0.23
Agrobacterium cells; [7]
  Results (growth of Agrobacterium cells): no growth
  OD A660 after 15 hours growth: 0.24
Agrobacterium cells; 15 hour culture period in the presence of AgNO3 (20 or 40 μM)
  Effect on Agrobacterium cells, plating on semi-solid LB plates: lethal
[5]; 20 μM AgNO3, three days co-culture
  Effect on growth of Agrobacterium during co-culture: significantly inhibited
[5]; 3d co-culture plus 20 μM AgNO3, versus 0d
  Results (fold reduction of Agrobacterium colonies/explant): 30 fold reduction
[5]; 3d co-culture plus 20 μM AgNO3, 0d value 3 × 10^5 CFU
  Average # of Agrobacterium Colonies/Explant: 1.0 × 10^4 CFU

— US20030204875A1, “Novel agrobacterium-mediated plant transformation method” (priority 1999, published 2003)
